# Laboratory results published in PMC3429506, “Screening for Novel LRRK2 Inhibitors Using a High-Throughput TR-FRET Cellular Assay for LRRK2 Ser935 Phosphorylation” (PLoS ONE, 2012).
# Where “and” joins values, the source holds several entries; their conditions need not be identical. Identical values can stand only once. Like-named read-outs stand apart in the source and are kept apart here.
# What was measured:
# LRRK2 G2019S [1] = biological target: T1, LRRK2 G2019S (Homo sapiens, UniProt Q5S007, G2019S); experiment: TR-FRET cellular assay for LRRK2 Ser935 phosphorylation, SH-SY5Y cells, BacMam LRRK2-GFP G2019S (incl. Tocriscreen Mini library screen and follow-up); assay type: cell-based; set-up: This high-throughput assay utilizes cells expressing full-length human LRRK2 with a C-terminal GFP tag (LRRK2-GFP); host or cells: SH-SY5Y cells transduced with BacMam; settings: for %Inhibition Initial screen / dephosphorylation of Ser935 in library screen: 20 µM; for Cellular TR-FRET Assay Max % Inhibition / IC50: dose-response follow-up; for Cellular TR-FRET Assay Max % Inhibition: 90 min; for IC50: three independent experiments, read-out: Cellular TR-FRET Assay IC50 +/-SD; for dephosphorylation of Ser935 in library screen: Tocriscreen library
# T1 sequence (Q5S007 whole entry G2019S): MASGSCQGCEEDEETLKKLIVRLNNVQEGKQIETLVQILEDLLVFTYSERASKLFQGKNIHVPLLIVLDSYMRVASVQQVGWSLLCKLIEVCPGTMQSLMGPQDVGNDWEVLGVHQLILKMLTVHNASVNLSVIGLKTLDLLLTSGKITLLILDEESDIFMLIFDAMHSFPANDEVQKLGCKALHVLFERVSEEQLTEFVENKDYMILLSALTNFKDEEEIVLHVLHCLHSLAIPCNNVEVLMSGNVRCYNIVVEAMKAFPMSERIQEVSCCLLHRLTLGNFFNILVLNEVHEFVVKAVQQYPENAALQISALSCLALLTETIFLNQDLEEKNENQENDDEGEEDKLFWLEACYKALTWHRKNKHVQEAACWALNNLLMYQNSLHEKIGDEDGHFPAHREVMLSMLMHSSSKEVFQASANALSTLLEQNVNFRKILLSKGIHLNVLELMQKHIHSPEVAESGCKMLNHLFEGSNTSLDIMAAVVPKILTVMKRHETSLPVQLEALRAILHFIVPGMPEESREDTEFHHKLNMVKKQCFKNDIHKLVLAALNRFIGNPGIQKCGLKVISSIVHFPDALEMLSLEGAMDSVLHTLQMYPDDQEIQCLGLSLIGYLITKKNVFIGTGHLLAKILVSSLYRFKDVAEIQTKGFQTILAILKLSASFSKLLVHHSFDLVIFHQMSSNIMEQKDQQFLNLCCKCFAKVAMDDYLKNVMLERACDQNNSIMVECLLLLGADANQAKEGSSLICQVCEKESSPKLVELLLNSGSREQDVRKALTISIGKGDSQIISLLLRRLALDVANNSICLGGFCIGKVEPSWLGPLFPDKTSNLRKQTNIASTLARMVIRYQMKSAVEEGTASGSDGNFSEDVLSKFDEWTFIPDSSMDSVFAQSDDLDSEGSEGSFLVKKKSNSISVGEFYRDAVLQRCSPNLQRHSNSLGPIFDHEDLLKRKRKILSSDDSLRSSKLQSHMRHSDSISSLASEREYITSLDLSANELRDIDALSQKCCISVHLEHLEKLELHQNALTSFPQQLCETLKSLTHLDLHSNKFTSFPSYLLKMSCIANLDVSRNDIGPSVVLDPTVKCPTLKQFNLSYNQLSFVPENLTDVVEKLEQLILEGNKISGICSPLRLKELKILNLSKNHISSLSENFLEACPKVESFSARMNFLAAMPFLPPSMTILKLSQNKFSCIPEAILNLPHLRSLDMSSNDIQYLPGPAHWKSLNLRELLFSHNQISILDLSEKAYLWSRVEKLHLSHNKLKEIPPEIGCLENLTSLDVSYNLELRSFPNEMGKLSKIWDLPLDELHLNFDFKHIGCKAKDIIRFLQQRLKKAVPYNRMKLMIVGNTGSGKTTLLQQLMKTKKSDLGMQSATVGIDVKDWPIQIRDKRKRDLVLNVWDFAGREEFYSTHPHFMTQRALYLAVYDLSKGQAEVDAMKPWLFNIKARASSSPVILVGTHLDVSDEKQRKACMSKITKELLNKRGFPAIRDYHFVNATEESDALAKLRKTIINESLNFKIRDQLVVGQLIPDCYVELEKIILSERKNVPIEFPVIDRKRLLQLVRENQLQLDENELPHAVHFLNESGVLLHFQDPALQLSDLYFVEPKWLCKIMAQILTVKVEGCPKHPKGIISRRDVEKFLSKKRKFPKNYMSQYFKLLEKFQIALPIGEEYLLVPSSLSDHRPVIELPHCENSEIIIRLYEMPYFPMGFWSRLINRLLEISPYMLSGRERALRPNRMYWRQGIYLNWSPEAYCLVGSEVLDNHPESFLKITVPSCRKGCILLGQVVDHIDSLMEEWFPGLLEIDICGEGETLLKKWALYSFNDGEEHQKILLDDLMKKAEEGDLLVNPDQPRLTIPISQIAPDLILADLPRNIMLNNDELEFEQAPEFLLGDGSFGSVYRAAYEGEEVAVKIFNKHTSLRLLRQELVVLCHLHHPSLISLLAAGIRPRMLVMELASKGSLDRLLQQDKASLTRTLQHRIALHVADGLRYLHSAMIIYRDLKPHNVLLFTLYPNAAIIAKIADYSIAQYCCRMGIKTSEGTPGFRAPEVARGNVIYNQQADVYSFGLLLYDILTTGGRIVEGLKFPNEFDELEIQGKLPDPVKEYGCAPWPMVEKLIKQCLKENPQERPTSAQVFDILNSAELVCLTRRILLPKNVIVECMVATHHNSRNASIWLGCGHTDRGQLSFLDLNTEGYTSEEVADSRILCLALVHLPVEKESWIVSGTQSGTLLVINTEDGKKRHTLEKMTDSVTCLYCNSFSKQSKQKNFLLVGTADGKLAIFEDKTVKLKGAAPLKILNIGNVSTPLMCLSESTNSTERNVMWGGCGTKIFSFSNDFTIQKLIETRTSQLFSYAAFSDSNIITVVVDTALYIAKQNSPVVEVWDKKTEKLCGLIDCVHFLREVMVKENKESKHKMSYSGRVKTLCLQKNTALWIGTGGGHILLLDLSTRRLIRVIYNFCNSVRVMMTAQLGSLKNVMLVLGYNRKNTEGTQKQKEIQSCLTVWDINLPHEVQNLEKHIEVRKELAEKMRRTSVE
# Protocol: U-2 OS cells are maintained in growth medium (McCoy’s 5A supplemented with 10% dialyzed FBS (dFBS), 10 mM HEPES, 0.1 mM NEAA, 1 mM Sodium Pyruvate, and 100 U/mL Penicillin/100 µg/mL Streptomycin). HEK293T cells are maintained in DMEM with 10% dFBS, 10 mM HEPES, 0.1 mM NEAA and 100 U/mL Penicillin/100 µg/mL Streptomycin. SH-SY5Y cells are maintained in DMEM/F-12 medium supplemented with 10% dFBS and 100 U/mL Penicillin/100 µg/mL Streptomycin. […] GIBCO® human neural stem cells (hNSCs) were propagated as an adherent culture in StemPro® NSC SFM according to the manufacturer’s recommended protocol (Life Technologies). For BacMam transduction of U-2 OS and HEK293T, cells were harvested, mixed with various amounts of BacMam LRRK2-GFP reagent (v/v) and plated onto 6-well plates. […] Cells were assayed in 384-well format (∼20,000 cells/well) 48 hours post-transduction as above.
# Transduced cells in the 384-well assay plate were incubated with indicated inhibitors (5X, 5 µL/well) for 60 to 90 minutes. During this time, 6 X lysis buffer (Life Technologies) was supplemented with 30 nM Tb-labeled anti-LRRK2 pSer935 antibody and both protease and phosphatase inhibitor cocktails (Sigma). The complete 6 X lysis buffer was added to each well (5 µL/well) and the plates were incubated at room temperature in the dark for 2 hours. […] A sigmoidal dose-response equation with varying slope was used to fit the data and generate IC50 values. Z′-factor values were calculated as: Z′-factor = 1 - [(3 × stdevno virus +3 × stdevmaxvirus)/(avgmaxvirus – avgno-virus)]. The IC50 values reported in Table 1 are the averaged numbers from three independent experiments.
# 40 nL of 10 mM Tocris library compounds in DMSO were dispensed into each well of the assay plate by the ECHO system. Equal volumes of DMSO were dispensed into the control wells. Cells were incubated with compounds for 90 to 120 min prior to cell lysis and detection as described above. The percent inhibition is calculated as: [(average emission ratios of DMSO control wells – average emission ratios of compound wells)/(average emission ratios of DMSO control wells – average emission ratios of LRRK2-IN-1 treated wells)] * 100. For the dose-response follow-up studies, fresh compound DMSO stock solutions were prepared from powder. […] Z′-factor value was calculated as: Z′-factor = 1 - [(3 × stdevLRRK2-IN-1+3 × stdevDMSO)/(avgDMSO – avgLRRK2-IN-1)]. The IC50 values reported in Table 2 are the averaged numbers from three independent experiments for both cellular and biochemical TR-FRET assays and one representative result of two independent experiments for the cytotoxicity assay.
# [2] = tested on: SH-SY5Y cells expressing LRRK2-GFP G2019S
# GFP-LRRK2 G2019S = biological target: T2, GFP-LRRK2 G2019S (Homo sapiens, UniProt Q5S007, G2019S); experiment: Immunoprecipitation/Western analysis of LRRK2 phosphorylation at Ser910, Ser935, Ser955, Ser973 in HEK293 T-REx GFP-LRRK2 G2019S cells; assay type: cell-based; settings: for effect on phosphorylation of Ser910, Ser935, Ser955 and Ser973 (IP-Western): 20 µM, 90 min, HEK293 GFP-LRRK2 G2019S, Figure 6
# T2 construct: expressed in transfected cells
# T2 sequence (Q5S007 whole entry G2019S): as above
# Protocol: (§1) Immunoblot analysis: BacMam LRRK2-GFP transduced U-2 OS or SH-SY5Y cells (10^7 cells) were left untreated or treated with 3 µM LRRK2-IN-I for 90 min. For lysate preparation, the cells were washed once with ice-cold PBS and lysed by addition of ice-cold lysis buffer (20 mM Tris-HCl, pH 7.4, 1% NP-40, 5 mM EDTA, 5 mM NaF, 150 mM NaCl, and 1∶100 of protease and phosphatase inhibitor cocktails). The lysate was cleared of debris by centrifugation. Equal amount of total protein was loaded onto each lane for SDS-PAGE (3–8% Tris Acetate). The proteins were transferred onto nitrocellulose membrane using the iBLOT® dry blotting system (Life Technologies) according to manufacturer’s protocol. The membranes were blocked and incubated with a primary antibody against LRRK2 (Cell Signaling Technologies), followed by incubation with alkaline phosphatase-conjugated secondary antibody (WesternBreeze® chromogenic Kit, Life Technologies). The blot was developed by using the chromogenic BCIP/NBT substrate (WesternBreeze® chromogenic Kit, Life Technologies). […] Two days post induction, cells were treated for 90 minutes in the presence of 20 µM of compound or DMSO vehicle control. Cells were rapidly lysed in ice cold lysis buffer 50 mM Tris/HCl, pH 7.5, 1 mM EGTA, 1 mM EDTA, […] 1 mM sodium orthovanadate, 10 mM sodium beta-glycerolphosphate, 50 mM NaF, 5 mM sodium pyrophosphate, 0.27 M sucrose, 1 mM benzamidine and 2 mM phenylmethanesulphonylfluoride (PMSF) and one tablet each complete protease inhibitor and PhosSTOP phosphatase inhibitor (Roche) and was supplemented with 1% (v/v) Triton X-100. GFP-LRRK2 was immunoprecipitated with GFP nanotrap beads (ChromoTek). Immunecomplexes were washed twice with lysis buffer supplemented with 300 mM NaCl and once with Buffer A (50 mM Tris/HCl, pH 7.5, 50 mM NaCl, 0.1 mM EGTA and 0.1% (v/v) 2-mercaptoethanol, and 0.27 M sucrose).
# [3] = tested on: SH-SY5Y cells expressing LRRK2-GFP G2019S; experiment: Cytotoxicity assay (resazurin-based cell viability); settings: read-out: Cytotoxicity Assay IC50; same conditions as TR-FRET follow-up; one representative of two experiments
# LRRK2 G2019S [4] = biological target: T1, LRRK2 G2019S; experiment: In vitro biochemical LRRK2 TR-FRET activity assay; settings: for IC50: LRRK2 G2019S, ATP 134 µM (Km,app), LRRKtide substrate, three independent experiments, read-out: Biochemical LRRK2 assay IC50 +/- SD; for effect on LRRK2 activity in vitro: result in words
# Protocol: The Biochemical LRRK2 TR-FRET activity assay was performed according to the manufacture recommended assay protocol (Life Technologies). […] After incubation at room temperature for 1 hour, the kinase reactions were stopped by addition of 10 µL of 20 mM EDTA and 4 nM Tb-anti-pERM (pLRRKtide) antibody in TR-FRET dilution buffer (Life Technologies). After a 30 minute incubation at room temperature, TR-FRET measurements were obtained on a BMG PHERAstar plate reader using LanthaScreen® filters and settings. A 16 point, 2-fold dilution series of each compound was tested in triplicate at each concentration and assays were also performed in triplicate.
# LRRK2 A2016T/G2019S = biological target: T3, LRRK2 A2016T/G2019S (Homo sapiens, UniProt Q5S007, A2016T/G2019S); experiment: Immunoprecipitation/Western analysis of LRRK2 phosphorylation in T-REx HEK293 cells expressing inhibitor desensitizing mutant; assay type: cell-based; settings: for effect of desensitizing mutation A2016T/G2019S on compound-induced dephosphorylation (IP-Western): 20 µM, Figure 6 IRM
# T3 construct: expressed in transfected cells
# T3 sequence (Q5S007 whole entry A2016T/G2019S): as the sequence (Q5S007 whole entry G2019S) above, with A2016T counted along it
# Protocol: as §1
# [5] = Tocriscreen Mini library screen, SH-SY5Y G2019S, relative to LRRK2-IN-1 control
SMILES,%Inhibition Initial screen (LRRK2 G2019S [1]; [5]) [%],IC50 [2] [µM],Cellular TR-FRET Assay Max % Inhibition (LRRK2 G2019S [1]; SH-SY5Y G2019S) [%],IC50 (LRRK2 G2019S [1]; SH-SY5Y G2019S) [µM],"effect on phosphorylation of Ser910, Ser935, Ser955 and Ser973 (IP-Western) (GFP-LRRK2 G2019S)",IC50 (LRRK2 G2019S [4]) [µM],further results
O=C(CCCN1CCC2(CC1)C(=O)N(Cc1cccc(F)c1)CN2c1ccccc1)c1ccc(F)cc1.O=C(O)/C=C\C(=O)O [3′-fluorobenzylspiperone maleate],53,–,–,–,–,–,–
CC(C)[C@H](CO)Nc1nc(Nc2cc(N)cc(Cl)c2)c2ncn(C(C)C)c2n1 [Aminopurvalanol A],56.2,> 20,50,1.4,–,–,–
O=C(O)/C=C\C(=O)O.O=C1/C(=C/c2ccccc2)C[C@@]2(O)[C@H]3Cc4ccc(O)c5c4[C@@]2(CCN3CC2CC2)[C@H]1O5 [BNTX maleate],–,–,88,4,moderately reduced phosphorylation of all four residues,> 100,%Inhibition Initial screen (LRRK2 G2019S [1]): 70% and 69.7%; IC50 [3]: > 20 µM; effect on LRRK2 activity in vitro (LRRK2 G2019S [4]): did not repress LRRK2 activity in vitro
O=C(NCCCNc1nc(Nc2cccc(NC(=O)N3CCCC3)c2)ncc1I)c1cccs1 [BX-795],–,–,–,–,inhibited LRRK2 cellular phosphorylation,–,effect of desensitizing mutation A2016T/G2019S on compound-induced dephosphorylation (IP-Western) (LRRK2 A2016T/G2019S): rescued phosphorylation
CC(C)(C)c1ccc(S(=O)(=O)/C=C/C#N)cc1 [Bay 11-7085],97.5,> 20,100,5.3,moderately reduced phosphorylation of all four residues,> 100,"LRRK2 phosphorylation remaining, % of untreated G2019S (GFP-LRRK2 G2019S; 293 cells, LRRK2 G2019S): 50%; effect on LRRK2 activity in vitro (LRRK2 G2019S [4]): did not repress LRRK2 activity in vitro; effect of desensitizing mutation A2016T/G2019S on compound-induced dephosphorylation (IP-Western) (LRRK2 A2016T/G2019S): did not appear to be changed; LRRK2 phosphorylation remaining, % of untreated G2019S (LRRK2 A2016T/G2019S; 293 cells, LRRK2 G2019S/A2016T): 50%"
Nc1nc(Nc2ccccc2)nc2c1ncn2[C@@H]1O[C@H](CO)[C@@H](O)[C@H]1O [CV1808],55,–,–,–,–,–,–
CN(C)CCCn1cc(C2=C(c3c[nH]c4ccccc34)C(=O)NC2=O)c2ccccc21 [GF109203X],–,–,–,–,–,–,dephosphorylation of Ser935 in library screen (LRRK2 G2019S [1]; SH-SY5Y G2019S): did not observe in vivo dephosphorylation of Ser935
O=C(c1ccc(Nc2nccc(-c3cc4ccccc4s3)n2)cc1)N1CCC(N2CCCC2)CC1 [IKK 16],81.7,> 20,82,1.3,"inhibited phosphorylation of Ser910, Ser935, Ser955 and Ser973",0.05,effect of desensitizing mutation A2016T/G2019S on compound-induced dephosphorylation (IP-Western) (LRRK2 A2016T/G2019S): rescued phosphorylation
CCc1ccc(OCc2ccccc2C(=O)Nc2ccc3nc(C)cc(N)c3c2)cc1 [JTC 801],90.1,10,84,9.6,moderately reduced phosphorylation of all four residues,> 100,"%Inhibition Initial screen (LRRK2 G2019S [1]; Tocriscreen Mini library screen, SH-SY5Y G2019S, relative to LRRK2-IN-1 control, listed as JTC801, 20 µM): 90%; effect on LRRK2 activity in vitro (LRRK2 G2019S [4]): did not repress LRRK2 activity in vitro"
O=C1C(Cl)=C(NCCN2CCOCC2)C(=O)c2ncccc21 [NSC 663284],59.1,2,45,5.8,–,0.48,–
Cn1cc(C2=C(c3cn(CCCSC(=N)N)c4ccccc34)C(=O)NC2=O)c2ccccc21 [Ro31-8220],–,–,–,–,–,–,dephosphorylation of Ser935 in library screen (LRRK2 G2019S [1]; SH-SY5Y G2019S): did not observe in vivo dephosphorylation of Ser935
[O-][S+](c1ccccc1)c1ccc2nnnn2n1 (stereo not shown) [Ro 106-9920],69.8,20,76,7.6,–,> 100,suppression of LRRK2 phosphorylation on Ser935 (GFP-LRRK2 G2019S; HEK293 cells): approximately 50%; effect on LRRK2 activity in vitro (LRRK2 G2019S [4]): did not repress LRRK2 activity in vitro
NC(=O)Nc1sc(-c2ccc(F)cc2)cc1C(N)=O [TPCA-1],54.8,–,50,0.1,–,–,IC50 [3]: > 20 µM
C[C@@H](N)[C@H]1CC[C@H](C(=O)Nc2ccncc2)CC1 [Y-27632],67.3,> 20,69,–,–,–,–
